Values quoted from earlier work as cited in article PMC3531425, “Low Resolution Solution Structure of HAMLET and the Importance of Its Alpha-Domains in Tumoricidal Activity” (PLoS ONE, 2012).

Test system: tumor cells
Settings: molecular range where the complex kills tumor cells; ref [10], [17]; cited from earlier work
Source text: The structural basis for HAMLET's tumoricidal activity is not fully understood. […] Since native α-lactalbumin lacks these activities, we hypothesized that the partially unfolded and ... || Recent Far-UV CD spectroscopy studies have shown that the secondary structural features in HAMLET are similar to those in α-lactalbumin [10], which include an alpha1 and alpha2 domain, consisting of the amino acid residues K1-Q39 and L81-L123, respectively, as well as the beta domain, formed by the residues A40-F80 (Fig. 3A–B). […] As described above the alpha2 domain forms a part of the globular domain (residues L81 to W104) as well as the C-terminal tail with t ...

CCCCCCCC/C=C\CCCCCCCC(=O)O [oleic acid]
Toxicity of oleic acid alone: not toxic
